Values joined by “and” are separate entries in the source; they are usually repeats but may differ in a detail not shown here. Identical values can stand only once. Toxic doses and inconclusive results are not listed. No stated cut-off is given here; in the data, active means T/C of 150% or more; inactive means T/C below 125%.
Test system: L1210 leukemia ip in BDF1 mice, survival T/C
Experiment: NCI In Vivo Anticancer Drug Screen. Data for tumor model L1210 Leukemia (intraperitoneal) in B6D2F1 (BDF1) mice
Conditions: endpoint: mean survival time, higher = longer survival
Procedure, shortened: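 Transplanted-tumor mice were given test agent; controls received vehicle only. Survival readings from the two groups were divided (treated over control).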

[1] = dose: 100.0 mg/kg/injection, schedule: Q01DX001 (ip), vehicle: carboxymethylcellulose (CMC)
[2] = dose: 200.0 mg/kg/injection, schedule: Q01DX001 (ip), vehicle: carboxymethylcellulose (CMC)
[3] = dose: 400.0 mg/kg/injection, schedule: Q01DX001 (ip), vehicle: carboxymethylcellulose (CMC)
[4] = dose: 50.0 mg/kg/injection, schedule: Q01DX001 (ip), vehicle: saline
[5] = dose: 100.0 mg/kg/injection, schedule: Q01DX001 (ip), vehicle: saline
[6] = dose: 400.0 mg/kg/injection, schedule: Q01DX001 (ip), vehicle: saline
[7] = dose: 100.0 mg/kg/injection, schedule: Q01DX009 (ip), vehicle: Klucel (hydroxypropylcellulose) (HPC)
[8] = dose: 200.0 mg/kg/injection, schedule: Q01DX009 (ip), vehicle: Klucel (hydroxypropylcellulose) (HPC)
[9] = dose: 400.0 mg/kg/injection, schedule: Q01DX009 (ip), vehicle: Klucel (hydroxypropylcellulose) (HPC)
[10] = dose: 200.0 mg/kg/injection, schedule: Q01DX001 (ip), vehicle: saline
[11] = dose: 50.0 mg/kg/injection, schedule: Q01DX009 (ip), vehicle: saline with Tween-80
[12] = dose: 100.0 mg/kg/injection, schedule: Q01DX009 (ip), vehicle: saline with Tween-80
[13] = dose: 100.0 mg/kg/injection, schedule: Q04DX003 (ip), vehicle: Klucel (hydroxypropylcellulose) (HPC)
[14] = dose: 200.0 mg/kg/injection, schedule: Q04DX003 (ip), vehicle: Klucel (hydroxypropylcellulose) (HPC)
[15] = dose: 400.0 mg/kg/injection, schedule: Q04DX003 (ip), vehicle: Klucel (hydroxypropylcellulose) (HPC)
[16] = dose: 50.0 mg/kg/injection, schedule: Q01DX001 (ip), vehicle: carboxymethylcellulose (CMC)

Measured: T/C

NC(=O)c1ccc(NC(=O)/C=C/C(=O)Nc2ccc(C(N)=O)cn2)nc1
inactive: dose: 1.0 mg/kg/injection, schedule: Q01DX001 (ip), vehicle: saline 100 % of control | dose: 1.0 mg/kg/injection, schedule: Q01DX Z (ip), vehicle: saline 101 % of control and 105 % of control and 113 % of control | dose: 2.0 mg/kg/injection, schedule: Q01DX001 (ip), vehicle: saline 100 % of control | dose: 2.0 mg/kg/injection, schedule: Q01DX Z (ip), vehicle: saline 87 % of control | dose: 4.0 mg/kg/injection, schedule: Q01DX001 (ip), vehicle: saline 100 % of control | dose: 4.0 mg/kg/injection, schedule: Q01DX Z (ip), vehicle: saline 99 % of control | dose: 5.0 mg/kg/injection, schedule: Q01DX001 (ip), vehicle: saline 107 % of control | dose: 5.0 mg/kg/injection, schedule: Q04DX003 (ip), vehicle: saline 107 % of control | dose: 8.0 mg/kg/injection, schedule: Q01DX001 (ip), vehicle: saline 102 % of control | dose: 8.0 mg/kg/injection, schedule: Q01DX Z (ip), vehicle: saline 107 % of control and 91 % of control | dose: 10.0 mg/kg/injection, schedule: Q01DX001 (ip), vehicle: saline 98 % of control | dose: 11.25 mg/kg/injection, schedule: Q01DX009 (ip), vehicle: saline 93 % of control | dose: 13.0 mg/kg/injection, schedule: Q04DX003 (ip), vehicle: acetone 104 % of control | dose: 13.0 mg/kg/injection, schedule: Q04DX003 (ip), vehicle: saline 109 % of control | dose: 20.0 mg/kg/injection, schedule: Q01DX001 (ip), vehicle: saline 104 % of control | dose: 20.0 mg/kg/injection, schedule: Q04DX003 (ip), vehicle: acetone 109 % of control | dose: 20.0 mg/kg/injection, schedule: Q04DX003 (ip), vehicle: saline 109 % of control | dose: 30.0 mg/kg/injection, schedule: Q04DX003 (ip), vehicle: acetone 98 % of control | dose: 30.0 mg/kg/injection, schedule: Q04DX003 (ip), vehicle: saline 109 % of control | dose: 45.0 mg/kg/injection, schedule: Q04DX003 (ip), vehicle: saline 88 % of control

CCOc1ccc(Br)cc1C1N(Cc2ccc(OC)cc2)CCCN1Cc1ccc(OC)cc1
inactive: [1] 96 % of control | [2] 93 % of control | [3] 91 % of control

O=[N+]([O-])c1ccc(OCc2ccc(S(=O)(=O)F)c(Cl)c2)c(Cl)c1
inactive: dose: 100.0 mg/kg/injection, schedule: Q01DX009 (ip), vehicle: other 101 % of control | dose: 100.0 mg/kg/injection, schedule: Q04DX003 (ip), vehicle: saline 101 % of control | dose: 200.0 mg/kg/injection, schedule: Q01DX009 (ip), vehicle: other 108 % of control | dose: 200.0 mg/kg/injection, schedule: Q04DX003 (ip), vehicle: saline 104 % of control | dose: 400.0 mg/kg/injection, schedule: Q01DX009 (ip), vehicle: other 94 % of control | dose: 400.0 mg/kg/injection, schedule: Q04DX003 (ip), vehicle: saline 88 % of control

O=C(CCCC(=O)N/N=C/c1ccccc1O)N/N=C\c1ccccc1O
inactive: [4] 87 % of control | [5] 90 % of control | [6] 90 % of control

O=C(Nc1cccc([N+](=O)[O-])c1)Nc1ccc(F)c([N+](=O)[O-])c1
inactive: [7] 102 % of control | [8] 101 % of control | [9] 98 % of control

C/C(=N/N(CCCCN(/N=C(/C)c1ccccc1)c1ccccc1)c1ccccc1)c1ccccc1
inactive: [4] 97 % of control | [5] 95 % of control | [10] 92 % of control | [6] 92 % of control

Cc1ccc(/C(Cc2ccccc2)=N\NC(N)=O)cc1
inactive: [5] 92 % of control | [10] 98 % of control | [6] 98 % of control

Cc1ccc2nc3c(cc(F)c4ccccc43)c(C)c2c1
inactive: [11] 105 % of control | [12] 87 % of control

CCCCCCCCC(O)CC (centres undefined)
inactive: [7] 93 % of control and 96 % of control | [13] 103 % of control | [8] 96 % of control | [14] 97 % of control | [9] 92 % of control and 105 % of control | [15] 97 % of control

COc1cc(/C(C)=N/N=C(\C)c2ccc(O)c(OC)c2)ccc1O
inactive: dose: 100.0 mg/kg/injection, schedule: Q01DX009 (ip), vehicle: saline 94 % of control | dose: 200.0 mg/kg/injection, schedule: Q01DX009 (ip), vehicle: saline 90 % of control | dose: 400.0 mg/kg/injection, schedule: Q01DX009 (ip), vehicle: saline 90 % of control

CN1COc2c(nc(-c3ccccc3)[nH]c2=O)C1
inactive: [16] 101 % of control | [1] 98 % of control | [2] 98 % of control | [3] 95 % of control

COC1OC(CO)C(O)C(OC)C1NC(C)=O (centres undefined)
inactive: [5] 103 % of control | [10] 106 % of control | [6] 101 % of control

CCCCC(C(=O)O)(c1ccccc1)c1ccccc1
inactive: dose: 75.0 mg/kg/injection, schedule: Q04DX002 (ip), vehicle: gum acacia 96 % of control | dose: 150.0 mg/kg/injection, schedule: Q04DX002 (ip), vehicle: gum acacia 107 % of control

CCOC(=O)NC(C)(CC)c1ccccc1 (centres undefined)
inactive: dose: 100.0 mg/kg/injection, schedule: Q01DX001 (ip), vehicle: other 105 % of control | dose: 200.0 mg/kg/injection, schedule: Q01DX001 (ip), vehicle: other 109 % of control | dose: 400.0 mg/kg/injection, schedule: Q01DX001 (ip), vehicle: other 117 % of control

CCCCCCCCCCCCCCCCCCSc1ccccc1
inactive: [13] 93 % of control | [14] 93 % of control | [15] 94 % of control

CC(=O)Nc1cc(Cl)cc2c1-c1ccc(Cl)cc1C2N(C)C (centres undefined)
inactive: [16] 98 % of control | [1] 90 % of control | [2] 106 % of control | [3] 98 % of control

O=C(/C=N/O)Nc1cc(Cl)c(Cl)cc1Cl
inactive: [11] 97 % of control | [12] 94 % of control | dose: 100.0 mg/kg/injection, schedule: Q04DX003 (ip), vehicle: saline with Tween-80 98 % of control | dose: 200.0 mg/kg/injection, schedule: Q01DX009 (ip), vehicle: saline with Tween-80 94 % of control | dose: 200.0 mg/kg/injection, schedule: Q04DX003 (ip), vehicle: saline with Tween-80 103 % of control

N#Cc1ccccc1NN=Nc1ccccc1-c1nc(N)nc(N)n1
inactive: dose: 25.0 mg/kg/injection, schedule: Q04DX003 (ip), vehicle: saline 97 % of control | dose: 50.0 mg/kg/injection, schedule: Q04DX003 (ip), vehicle: saline 103 % of control

O=C(O)c1ccccc1C(=O)Nc1ccc([N+](=O)[O-])cc1Cl
inactive: dose: 50.0 mg/kg/injection, schedule: Q01DX009 (ip), vehicle: Klucel (hydroxypropylcellulose) (HPC) 94 % of control | [7] 95 % of control | [13] 97 % of control | [8] 89 % of control | [14] 97 % of control

Source: PubChem BioAssay AID248 (DTP/NCI, 2004)
